Active and inactive are the calls of the source. The rule behind the calls is not given here.
Legend:
[1] = molecular target: T1, von Hippel-Lindau disease tumor suppressor/Son of sevenless homolog 1 (Homo sapiens, UniProt Q07889+P40337); assay: Protac activity at VHL/SOS1 in human K562 cells assessed as SOS1 degradation at 10 uM by Western blotting analysis relative to control; type: cell-based
Target sequence in this assay (P40337 whole entry, looked up, one chain of several): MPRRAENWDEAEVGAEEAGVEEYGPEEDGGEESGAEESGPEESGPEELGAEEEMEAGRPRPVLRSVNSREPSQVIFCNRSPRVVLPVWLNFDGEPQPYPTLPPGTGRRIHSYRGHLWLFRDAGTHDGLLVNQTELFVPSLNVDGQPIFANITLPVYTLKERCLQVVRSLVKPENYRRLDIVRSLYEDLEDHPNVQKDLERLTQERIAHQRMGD

[2] = molecular target: T2, Son of sevenless homolog 1 (Homo sapiens) (UniProt Q07889); assay: Induction of SOS1 degradation in human MIA PaCa-2 cells at 1 uM after 24 hrs by MS analysis; type: cell-based
T2 sequence (whole entry): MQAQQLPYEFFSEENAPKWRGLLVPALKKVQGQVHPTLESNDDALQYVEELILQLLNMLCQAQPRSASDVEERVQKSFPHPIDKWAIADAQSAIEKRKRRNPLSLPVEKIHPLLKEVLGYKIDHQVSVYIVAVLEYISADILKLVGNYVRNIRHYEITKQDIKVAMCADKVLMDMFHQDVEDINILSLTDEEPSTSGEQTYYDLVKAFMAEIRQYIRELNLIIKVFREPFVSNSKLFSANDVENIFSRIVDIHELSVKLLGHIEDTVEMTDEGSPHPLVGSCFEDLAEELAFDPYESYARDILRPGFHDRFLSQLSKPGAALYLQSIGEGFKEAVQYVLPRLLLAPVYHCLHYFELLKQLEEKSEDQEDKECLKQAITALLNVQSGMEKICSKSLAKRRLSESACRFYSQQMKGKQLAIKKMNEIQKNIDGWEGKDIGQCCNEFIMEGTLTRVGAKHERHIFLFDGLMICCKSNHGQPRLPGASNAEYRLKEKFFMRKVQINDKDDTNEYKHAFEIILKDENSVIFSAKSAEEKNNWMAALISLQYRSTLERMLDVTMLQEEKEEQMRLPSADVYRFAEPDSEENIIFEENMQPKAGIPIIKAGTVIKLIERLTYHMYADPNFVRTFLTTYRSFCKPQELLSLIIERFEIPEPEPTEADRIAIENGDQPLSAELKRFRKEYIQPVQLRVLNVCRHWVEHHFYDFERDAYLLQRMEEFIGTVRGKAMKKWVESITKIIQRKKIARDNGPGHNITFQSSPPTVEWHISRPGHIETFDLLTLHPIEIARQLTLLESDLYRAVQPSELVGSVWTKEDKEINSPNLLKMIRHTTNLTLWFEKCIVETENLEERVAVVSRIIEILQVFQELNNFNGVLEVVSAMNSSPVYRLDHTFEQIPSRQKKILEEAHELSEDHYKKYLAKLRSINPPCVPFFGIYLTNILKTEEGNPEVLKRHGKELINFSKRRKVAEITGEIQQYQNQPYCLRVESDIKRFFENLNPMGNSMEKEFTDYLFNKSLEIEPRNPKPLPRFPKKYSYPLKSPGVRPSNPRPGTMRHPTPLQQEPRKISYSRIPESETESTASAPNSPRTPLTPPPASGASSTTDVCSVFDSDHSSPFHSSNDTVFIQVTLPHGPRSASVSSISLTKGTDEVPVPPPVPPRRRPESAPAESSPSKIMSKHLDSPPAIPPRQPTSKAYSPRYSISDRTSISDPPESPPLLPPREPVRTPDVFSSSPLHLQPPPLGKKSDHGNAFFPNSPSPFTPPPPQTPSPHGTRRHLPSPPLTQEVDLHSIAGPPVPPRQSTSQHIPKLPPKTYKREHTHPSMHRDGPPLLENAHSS

[3] = test system: K562; assay: Effect on total MEK level in human K562 cells at 0.3 to 3 uM incubated for 24 hrs by Western blotting analysis; type: functional, cell-based; details: dose 0.3-3 µM
[4] = molecular target: T1, von Hippel-Lindau disease tumor suppressor/Son of sevenless homolog 1; assay: Protac activity at VHL/SOS1 in human K562 cells assessed as SOS1 degradation at 1 uM preincubated with VHL ligand V1 for 2 hrs followed by compound addition and measured after 2 hrs by Western blotting analysis; type: cell-based
Target sequence in this assay (P40337 whole entry, looked up, one chain of several): as the sequence (P40337 whole entry, looked up, one chain of several) above

[5] = molecular target: T1, von Hippel-Lindau disease tumor suppressor/Son of sevenless homolog 1; assay: Protac activity at VHL/SOS1 in human K562 cells assessed as SOS1 degradation at 1 uM incubated for 96 hrs by Western blotting analysis; type: cell-based
Target sequence in this assay (P40337 whole entry, looked up, one chain of several): as the sequence (P40337 whole entry, looked up, one chain of several) above

[6] = test system: NCI-H358; assay: Antiproliferative activity against human NCI-H358 cells incubated for 6 days by CCK8 assay; type: functional, cell-based; details: NCI-H358, 144 h
[7] = test system: Mus musculus; assay: In vivo induction of SOS1 degradation in human K562 cells xenografted in NOD-SCID mouse assessed as reduction in SOS1 level at 25 mg/kg, ip measured after 24 hrs by immunoblotting analysis; type: functional, organism-based
[8] = test system: K562; assay: Antiproliferative activity against human K562 cells incubated for 72 hrs by CCK8 assay; type: functional, cell-based; details: K562, 72 h
[9] = molecular target: T1, von Hippel-Lindau disease tumor suppressor/Son of sevenless homolog 1; assay: Protac activity at VHL/SOS1 in human K562 cells assessed as SOS1 degradation incubated for 24 hrs by Western blotting analysis; type: cell-based
[10] = molecular target: T1, von Hippel-Lindau disease tumor suppressor/Son of sevenless homolog 1; assay: Protac activity at VHL/SOS1 in human K562 cells assessed as SOS1 degradation at 1 uM preincubated with MG132 for 2 hrs followed by compound addition and measured after 2 hrs by Western blotting analysis; type: cell-based
Target sequence in this assay (P40337 whole entry, looked up, one chain of several): as the sequence (P40337 whole entry, looked up, one chain of several) above

[11] = molecular target: T1, von Hippel-Lindau disease tumor suppressor/Son of sevenless homolog 1; assay: Protac activity at VHL/SOS1 in human K562 cells assessed as SOS1 degradation at 1 uM by Western blotting analysis relative to control; type: cell-based
Target sequence in this assay (P40337 whole entry, looked up, one chain of several): as the sequence (P40337 whole entry, looked up, one chain of several) above

[12] = molecular target: T2, Son of sevenless homolog 1 (Homo sapiens); assay: Induction of SOS1 degradation in human NCI-H358 cells at 1 uM measured upto 72 hrs by Western blotting analysis; type: cell-based
[13] = molecular target: T1, von Hippel-Lindau disease tumor suppressor/Son of sevenless homolog 1; assay: Protac activity at VHL/SOS1 in human NCI-H358 cells assessed as SOS1 degradation incubated for 24 hrs by Western blotting analysis; type: cell-based
[14] = molecular target: T1, von Hippel-Lindau disease tumor suppressor/Son of sevenless homolog 1; assay: Protac activity at VHL/SOS1 in human MIA PaCa-2 cells assessed as SOS1 degradation at 1 uM preincubated with BI3406 for 2 hrs followed by compound addition and measured after 3 hrs by Western blotting analysis; type: cell-based
Target sequence in this assay (P40337 whole entry, looked up, one chain of several): as the sequence (P40337 whole entry, looked up, one chain of several) above

[15] = AUC(0 to infinity) in ICR mouse at 10 mg/kg, po measured upto 24 hrs by LC-MS/MS analysis; type: ADME, organism-based; details: in vivo
[16] = molecular target: T1, von Hippel-Lindau disease tumor suppressor/Son of sevenless homolog 1; assay: Protac activity at VHL/SOS1 in human MIA PaCa-2 cells assessed as SOS1 degradation at 1 uM preincubated with MLN4924 for 2 hrs followed by compound addition and measured after 3 hrs by Western blotting analysis; type: cell-based
[17] = test system: K562; assay: Potency index, ratio of BI3406 IC50 to test compound IC50 for antiproliferative activity against human K562 cells incubated for 72 hrs by CCK8 assay; type: functional
[18] = test system: K562; assay: Downregulation of phosphorylated-ERK level in human K562 cells at 0.3 to 3 uM incubated for 24 hrs by Western blotting analysis; type: functional, cell-based; details: dose 0.3-3 µM
[19] = molecular target: T1, von Hippel-Lindau disease tumor suppressor/Son of sevenless homolog 1; assay: Protac activity at VHL/SOS1 in human MIA PaCa-2 cells assessed as SOS1 degradation at 1 uM preincubated with VHL ligand V1 for 2 hrs followed by compound addition and measured after 3 hrs by Western blotting analysis; type: cell-based
[20] = molecular target: T1, von Hippel-Lindau disease tumor suppressor/Son of sevenless homolog 1; assay: Protac activity at VHL/SOS1 in human PANC-1 cells assessed as SOS1 degradation at 1 uM by Western blotting analysis relative to control; type: cell-based
[21] = test system: K562; assay: Downregulation of phosphorylated-MEK level in human K562 cells at 0.3 to 3 uM incubated for 24 hrs by Western blotting analysis; type: functional, cell-based; details: dose 0.3-3 µM

COc1cc2nc(C)nc(N[C@H](C)c3cc(N)cc(C(F)(F)F)c3)c2cc1OCCCCC(=O)N[C@H](C(=O)N1C[C@H](O)C[C@H]1C(=O)NCc1ccc(-c2scnc2C)cc1)C(C)(C)C
Activity [1]: 93.3%
Activity [2]: Active
Activity [3]: inactive
Activity [4]: inactive
Activity [5]: Active
IC50 [6]: 2450 nM
Activity [7]: Active
IC50 [8]: 535 nM
Activity [9]: Dose-Dependent Effect
DC50 [9]: 130 nM
Activity [10]: inactive
Activity [11]: 89.8%
Activity [12]: Active
Activity [13]: Dose-Dependent Effect
DC50 [13]: 50 nM
Activity [14]: inactive
AUC(0-inf) [15]: 4280 ng·h/mL
Activity [16]: inactive
Ratio IC50 [17]: 3
Activity [18]: Active
Activity [19]: inactive
Activity [20]: 90.9%
Activity [21]: Active
